Measurements: publication PMC5216130, “Saturated palmitic acid induces myocardial inflammatory injuries through direct binding to TLR4 accessory protein MD2” (Nature Communications, 2017)
Each block holds one compound with its values, some of them ahead of it.

Tests used:
[1] = biological target: T1, MD2 (myeloid differentiation protein 2; rhMD2) (Homo sapiens, UniProt Q9Y6Y9); experiment: SPR (ProteOn XPR36); confirmed on ForteBio Octet HTX (KD=[…]) and by biotin-PA ELISA; assay type: binding
T1 construct: gene LY96; recombinant human MD2 (rhMD2)
T1 sequence (Q9Y6Y9 19-160): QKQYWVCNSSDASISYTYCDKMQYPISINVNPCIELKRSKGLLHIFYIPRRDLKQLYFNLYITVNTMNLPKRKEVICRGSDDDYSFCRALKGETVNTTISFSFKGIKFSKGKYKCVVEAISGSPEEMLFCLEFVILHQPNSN

[2] = biological target: T1, MD2 (myeloid differentiation protein 2; rhMD2); experiment: ForteBio Octet HTX (called SPR in the paper); assay type: binding

Kd [1]: 31.6 µM
Structure (SMILES): CCCCCCCCCCCCCCCC(=O)O [PA, palmitic acid]

Structure (SMILES): CCCCC/C=C\C/C=C\CCCCCCCC(=O)O [linoleic acid]
Kd [2]: 54 µM

Kd ([2]; read-out: Kd): 35 µM
Structure (SMILES): CCCCCCCC/C=C\CCCCCCCC(=O)O [oleic acid]
